Test results from ChEMBL document CHEMBL1150351, “Design, synthesis, and biological evaluation of new-generation taxoids” (J Med Chem, 2008).

Assays:
[1] = Cytotoxicity against Pgp deficient human LCC6 cells after 72 hrs by sulforhodamine B test; format: functional, cell-based; conditions: C6, 72 h
[2] = Cytotoxicity against multidrug resistant Pgp expressing human LCC6 cells after 72 hrs by sulforhodamine B test; format: functional, cell-based; conditions: LCC-6, 72 h
[3] = system: C6; assay: Resistance index, Ratio of IC50 for multidrug resistant Pgp expressing human LCC6 cells to IC50 for Pgp deficient human LCC6 cells; format: functional; parameters: reference not given here
[4] = system: MCF7; assay: Cytotoxicity against Pgp deficient human MCF7 cells after 72 hrs by sulforhodamine B test; format: functional, cell-based; conditions: MCF7, 72 h
[5] = Cytotoxicity against multidrug resistant Pgp expressing human NCI/ADR cells after 72 hrs by sulforhodamine B test; format: functional, cell-based; conditions: NCI/ADR-RES
[6] = system: MCF7; assay: Resistance index, Ratio of IC50 for multidrug resistant Pgp expressing human NCI/ADR cells to IC50 for Pgp deficient human MCF7 cells; format: functional; parameters: reference not given here

| Compound | IC50 [1] | IC50 [2] | Ratio IC50 [3] | IC50 [4] | IC50 [5] | Ratio IC50 [6] |
| --- | --- | --- | --- | --- | --- | --- |
| CCC(=O)O[C@H]1C(=O)[C@@]2(C)[C@H]([C@H](OC(=O)c3cccc(OC)c3)[C@]3(O)C[C@H](OC(=O)[C@H](O)[C@H](C=C(C)C)NC(=O)C4CC4)C(C)=C1C3(C)C)[C@]1(OC(C)=O)CO[C@@H]1C[C@@H]2O | 1.1 nM | 17.2 nM | 16 | 0.5 nM | 7.8 nM | 15.6 |
| COc1ccc(CC(=O)O[C@H]2C(=O)[C@@]3(C)[C@H]([C@H](OC(=O)c4cccc(OC)c4)[C@]4(O)C[C@H](OC(=O)[C@H](O)[C@H](C=C(C)C)NC(=O)OC(C)(C)C)C(C)=C2C4(C)C)[C@]2(OC(C)=O)CO[C@@H]2C[C@@H]3O)cc1 | 0.4 nM | 0.4 nM | 1 | 0.6 nM | 1.8 nM | 3 |
| CCC(=O)O[C@H]1C(=O)[C@@]2(C)[C@H]([C@H](OC(=O)c3ccccc3)[C@]3(O)C[C@H](OC(=O)[C@H](O)[C@H](C=C(C)C)NC(=O)C4=CCCCC4)C(C)=C1C3(C)C)[C@]1(OC(C)=O)CO[C@@H]1C[C@@H]2O | 1.2 nM | 11 nM | 9.2 | 0.3 nM | 3.8 nM | 13 |
| CCC(=O)O[C@H]1C(=O)[C@@]2(C)[C@H]([C@H](OC(=O)c3ccccc3)[C@]3(O)C[C@H](OC(=O)[C@H](O)[C@H](C=C(C)C)NC(=O)C4CCC4)C(C)=C1C3(C)C)[C@]1(OC(C)=O)CO[C@@H]1C[C@@H]2O | 1.3 nM | 34 nM | 26 | 1.2 nM | 41 nM | 34 |
| COc1cccc(C(=O)O[C@H]2[C@@H]3[C@]4(OC(C)=O)CO[C@@H]4C[C@H](O)[C@@]3(C)C(=O)[C@H](OC(=O)OCc3ccccc3)C3=C(C)[C@@H](OC(=O)[C@H](O)[C@H](C=C(C)C)NC(=O)OC(C)(C)C)C[C@]2(O)C3(C)C)c1 | 1.2 nM | 1.8 nM | 1.5 | 0.2 nM | 1.5 nM | 7.5 |
| CCC(=O)O[C@H]1C(=O)[C@@]2(C)[C@H]([C@H](OC(=O)c3cccc(OC)c3)[C@]3(O)C[C@H](OC(=O)[C@H](O)[C@H](C=C(C)C)NC(=O)C4CCCC4)C(C)=C1C3(C)C)[C@]1(OC(C)=O)CO[C@@H]1C[C@@H]2O | 1.1 nM | 11 nM | 10 | 0.3 nM | 9.5 nM | 32 |
| CCC(=O)O[C@H]1C(=O)[C@@]2(C)[C@H]([C@H](OC(=O)c3ccccc3)[C@]3(O)C[C@H](OC(=O)[C@H](O)[C@H](CC(C)C)NC(=O)OC4CCCCC4)C(C)=C1C3(C)C)[C@]1(OC(C)=O)CO[C@@H]1C[C@@H]2O | 4.8 nM | 18 nM | 3.8 | 1.4 nM | 14 nM | 10 |
| CCC(=O)O[C@H]1C(=O)[C@@]2(C)[C@H]([C@H](OC(=O)c3ccccc3)[C@]3(O)C[C@H](OC(=O)[C@H](O)[C@H](CC(C)C)NC(=O)C4CCCCC4)C(C)=C1C3(C)C)[C@]1(OC(C)=O)CO[C@@H]1C[C@@H]2O | 5.8 nM | 32 nM | 5.5 | 1.5 nM | 19 nM | 13 |
| CCC(=O)O[C@H]1C(=O)[C@@]2(C)[C@H]([C@H](OC(=O)c3ccccc3)[C@]3(O)C[C@H](OC(=O)[C@H](O)[C@H](C=C(C)C)NC(=O)OC4CCCCC4)C(C)=C1C3(C)C)[C@]1(OC(C)=O)CO[C@@H]1C[C@@H]2O | 1.2 nM | 15 nM | 13 | 1.4 nM | 8.9 nM | 6.4 |
| CCC(=O)O[C@H]1C(=O)[C@@]2(C)[C@H]([C@H](OC(=O)c3ccccc3)[C@]3(O)C[C@H](OC(=O)[C@H](O)[C@H](C=C(C)C)NC(=O)C4=CCCC4)C(C)=C1C3(C)C)[C@]1(OC(C)=O)CO[C@@H]1C[C@@H]2O | 1.2 nM | 14 nM | 12 | 0.4 nM | 6 nM | 15 |
| CCC(=O)O[C@H]1C(=O)[C@@]2(C)[C@H]([C@H](OC(=O)c3cccc(OC)c3)[C@]3(O)C[C@H](OC(=O)[C@H](O)[C@H](CC(C)C)NC(=O)C4CCCCC4)C(C)=C1C3(C)C)[C@]1(OC(C)=O)CO[C@@H]1C[C@@H]2O | 1 nM | 12 nM | 12 | 0.7 nM | 6.5 nM | 9.3 |
| CCC(=O)O[C@H]1C(=O)[C@@]2(C)[C@H]([C@H](OC(=O)c3cccc(OC)c3)[C@]3(O)C[C@H](OC(=O)[C@H](O)[C@H](C=C(C)C)NC(=O)C4CCC4)C(C)=C1C3(C)C)[C@]1(OC(C)=O)CO[C@@H]1C[C@@H]2O | 1.6 nM | 15 nM | 9.4 | 0.8 nM | 8.8 nM | 11 |
| CCC(=O)O[C@H]1C(=O)[C@@]2(C)[C@H]([C@H](OC(=O)c3ccccc3)[C@]3(O)C[C@H](OC(=O)[C@H](O)[C@H](C=C(C)C)NC(=O)C4CCCC4)C(C)=C1C3(C)C)[C@]1(OC(C)=O)CO[C@@H]1C[C@@H]2O | 1.1 nM | 19 nM | 17 | 1.1 nM | 22 nM | 20 |
| CCC(=O)O[C@H]1C(=O)[C@@]2(C)[C@H]([C@H](OC(=O)c3cccc(OC)c3)[C@]3(O)C[C@H](OC(=O)[C@H](O)[C@H](CC(C)C)NC(=O)OC4CCCC4)C(C)=C1C3(C)C)[C@]1(OC(C)=O)CO[C@@H]1C[C@@H]2O | 0.76 nM | 2.6 nM | 3.4 | 0.17 nM | 1.18 nM | 6.9 |
| CCC(=O)O[C@H]1C(=O)[C@@]2(C)[C@H]([C@H](OC(=O)c3ccccc3)[C@]3(O)C[C@H](OC(=O)[C@H](O)[C@H](CC(C)C)NC(=O)C4CCCC4)C(C)=C1C3(C)C)[C@]1(OC(C)=O)CO[C@@H]1C[C@@H]2O | 6.3 nM | 64 nM | 10 | 2.3 nM | 29 nM | 12 |
| CCC(=O)O[C@H]1C(=O)[C@@]2(C)[C@H]([C@H](OC(=O)c3ccccc3)[C@]3(O)C[C@H](OC(=O)[C@H](O)[C@H](CC(C)C)NC(=O)OC4CCCC4)C(C)=C1C3(C)C)[C@]1(OC(C)=O)CO[C@@H]1C[C@@H]2O | 2.6 nM | 14 nM | 5.4 | 1.3 nM | 8.8 nM | 6.8 |
| CCC(=O)O[C@H]1C(=O)[C@@]2(C)[C@H]([C@H](OC(=O)c3cccc(OC)c3)[C@]3(O)C[C@H](OC(=O)[C@H](O)[C@H](CC(C)C)NC(=O)C4CC4)C(C)=C1C3(C)C)[C@]1(OC(C)=O)CO[C@@H]1C[C@@H]2O | 0.6 nM | 13 nM | 22 | 0.4 nM | 11.8 nM | 30 |
| CCC(=O)O[C@H]1C(=O)[C@@]2(C)[C@H]([C@H](OC(=O)c3ccccc3)[C@]3(O)C[C@H](OC(=O)[C@H](O)[C@H](C=C(C)C)NC(=O)C4CCCCC4)C(C)=C1C3(C)C)[C@]1(OC(C)=O)CO[C@@H]1C[C@@H]2O | 1.3 nM | 13 nM | 10 | 1 nM | 18 nM | 18 |
